Test results: ChEMBL document CHEMBL5046315, “CRCM5484: A BET-BDII Selective Compound with Differential Anti-leukemic Drug Modulation” (J Med Chem, 2022)
Calls of active or inactive are those of the source. No cut-off for these calls is given here.

Experiments:
[1] = molecular target: T1, Bromodomain-containing protein 3 (Homo sapiens, UniProt Q15059); assay: Inhibition of BRD3-BD2 (unknown origin) incubated for 6 hrs by HTRF method
[2] = molecular target: T1, Bromodomain-containing protein 3; assay: Inhibition of BRD3-BD1 domain (unknown origin) incubated for 6 hrs by HTRF method
Homo sapiens [3] = species: Homo sapiens; assay: Selectivity ratio of IC50 for BRD3-BD1 (unknown origin) to IC50 for BRD3-BD2 (unknown origin)
MOLM-14 [4] = assay: Downregulation of Myc expression in human MOLM-14 cells incubated for 2 hrs by RT-PCR analysis; format: functional, cell-based; details: dose 5.0 µM
K562 [5] = assay: Inhibition of IFNgamma induced MHC-1 expression in human K562 cells treated for 48 hrs by flow cytometric analysis; format: functional, cell-based; details: dose 0.2-20 µM
MOLM-14 [6] = assay: cells; details: Homo sapiens, MOLM-14, 72 h
Description: Cytotoxicity against human MOLM-14 cells assessed as reduction in cell viability incubated for 72 hrs

NB-4 = assay: Cytotoxicity against human NB-4 cells assessed as reduction in cell viability incubated for 72 hrs; format: functional, cell-based; details: NB-4, 72 h
K562 [7] = assay: Cytotoxicity against human K562 cells assessed as reduction in cell viability incubated for 72 hrs; format: functional, cell-based; details: K562, 72 h
CCRF-CEM = assay: Cytotoxicity against human CCRF-CEM cells assessed as reduction in cell viability incubated for 72 hrs; format: functional, cell-based
[8] = molecular target: T1, Bromodomain-containing protein 3; assay: Inhibition of BRD3-BD1 (unknown origin) assessed as dissociation constant by TR-FRET method
[9] = molecular target: T2, Bromodomain-containing protein 4 (Homo sapiens, UniProt O60885); assay: Inhibition of BRD4-BD1 (unknown origin) incubated for 6 hrs by HTRF method
[10] = molecular target: T2, Bromodomain-containing protein 4; assay: Inhibition of BRD4-BD2 (unknown origin) incubated for 6 hrs by HTRF method
Homo sapiens [11] = species: Homo sapiens; assay: Selectivity ratio of IC50 for BRD4-BD1 (unknown origin) to IC50 for BRD4-BD2 (unknown origin)
[12] = molecular target: T3, Bromodomain-containing protein 2 (Homo sapiens, UniProt P25440); assay: Inhibition of BRD2-BD2 (unknown origin) incubated for 6 hrs by HTRF method
[13] = molecular target: T3, Bromodomain-containing protein 2; assay: Binding affinity to human partial length BRD2-BD2 (E348 to D455) expressed in bacterial system assessed as dissociation constant by BROMOscan method
[14] = molecular target: T1, Bromodomain-containing protein 3; assay: Binding affinity to human partial length BRD3-BD2 (G306 to P416) expressed in bacterial system assessed as dissociation constant by BROMOscan method
[15] = molecular target: T2, Bromodomain-containing protein 4; assay: Binding affinity to human partial length BRD4-BD2 (K333 to E460 residues) expressed in bacterial system assessed as dissociation constant by BROMOscan method
[16] = molecular target: T2, Bromodomain-containing protein 4; assay: Inhibition of BRD4-BD1 (unknown origin) (N44 to E168 residues) expressed in bacterial expression system assessed as dissociation constant by BROMOscan method
[17] = molecular target: T2, Bromodomain-containing protein 4; assay: Inhibition of BRD4-BD2 (unknown origin) (K333 to E460 residues) expressed in bacterial system assessed as dissociation constant by BROMOscan method

T1 sequence (Q15059 whole entry, the tested form may be a part): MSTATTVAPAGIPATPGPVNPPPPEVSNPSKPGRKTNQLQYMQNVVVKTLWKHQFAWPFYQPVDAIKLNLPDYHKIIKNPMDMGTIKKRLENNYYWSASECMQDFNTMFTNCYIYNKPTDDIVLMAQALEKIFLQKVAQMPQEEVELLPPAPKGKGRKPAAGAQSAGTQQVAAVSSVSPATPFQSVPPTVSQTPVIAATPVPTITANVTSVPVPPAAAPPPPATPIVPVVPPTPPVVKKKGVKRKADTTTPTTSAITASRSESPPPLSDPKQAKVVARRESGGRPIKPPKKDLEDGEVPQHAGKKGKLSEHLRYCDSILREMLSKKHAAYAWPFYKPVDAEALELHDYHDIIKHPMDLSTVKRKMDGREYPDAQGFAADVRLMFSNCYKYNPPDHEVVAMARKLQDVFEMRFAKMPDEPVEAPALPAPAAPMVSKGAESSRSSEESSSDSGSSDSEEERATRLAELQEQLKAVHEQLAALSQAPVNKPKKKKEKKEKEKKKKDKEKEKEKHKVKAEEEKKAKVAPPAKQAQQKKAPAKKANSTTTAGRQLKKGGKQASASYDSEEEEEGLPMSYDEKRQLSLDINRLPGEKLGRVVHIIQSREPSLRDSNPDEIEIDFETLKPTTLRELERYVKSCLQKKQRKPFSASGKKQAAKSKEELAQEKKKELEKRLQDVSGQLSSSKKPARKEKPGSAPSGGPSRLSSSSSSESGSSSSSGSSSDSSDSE
T3 sequence (P25440 whole entry): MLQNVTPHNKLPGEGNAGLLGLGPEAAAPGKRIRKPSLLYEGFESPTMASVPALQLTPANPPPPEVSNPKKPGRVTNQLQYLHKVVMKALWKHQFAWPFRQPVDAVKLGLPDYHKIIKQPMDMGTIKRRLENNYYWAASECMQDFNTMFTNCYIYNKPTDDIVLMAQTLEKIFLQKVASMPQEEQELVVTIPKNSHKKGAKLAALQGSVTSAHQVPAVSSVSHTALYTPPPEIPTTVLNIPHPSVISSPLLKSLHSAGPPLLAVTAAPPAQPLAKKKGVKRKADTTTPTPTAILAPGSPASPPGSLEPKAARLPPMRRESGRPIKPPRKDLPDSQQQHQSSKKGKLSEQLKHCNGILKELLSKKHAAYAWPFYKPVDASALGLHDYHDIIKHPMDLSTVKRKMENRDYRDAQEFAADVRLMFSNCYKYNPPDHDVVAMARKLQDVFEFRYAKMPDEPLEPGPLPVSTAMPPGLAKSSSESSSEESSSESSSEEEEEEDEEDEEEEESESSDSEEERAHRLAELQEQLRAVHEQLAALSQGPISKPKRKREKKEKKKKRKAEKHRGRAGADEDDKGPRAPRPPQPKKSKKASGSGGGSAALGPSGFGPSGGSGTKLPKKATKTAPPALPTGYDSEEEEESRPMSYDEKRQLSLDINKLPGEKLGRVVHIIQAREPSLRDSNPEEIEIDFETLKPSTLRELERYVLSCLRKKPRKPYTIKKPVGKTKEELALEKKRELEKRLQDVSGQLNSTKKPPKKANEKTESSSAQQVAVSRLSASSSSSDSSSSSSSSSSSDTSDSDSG

Row | SMILES | IC50 [1] [µM] | IC50 [2] [µM] | Ratio IC50 (Homo sapiens [3]) | also measured
1 | CC(=O)N1CCc2c(sc3nc(SCC(=O)Nc4ccc(F)c(F)c4)n(Cc4ccco4)c(=O)c23)C1 | 0.47 | 4.9 | 8 | 
2 | CC(=O)N1CCc2c(sc3nc(SCC(=O)Nc4cc(F)ccc4F)n(Cc4ccco4)c(=O)c23)C1 | 0.17 | 4.5 | 24 | 
3 | CC(=O)N1CCc2c(sc3nc(SCC(=O)Nc4cc(Cl)ccc4C)n(-c4ccc(C)o4)c(=O)c23)C1 | 0.41 | 7.8 | 19 | 
4 | COc1ccc(NC(=O)CSc2nc3sc4c(c3c(=O)n2Cc2ccco2)CCN(C(C)=O)C4)cc1 | 0.57 | 2.2 | 6 | 
5 | CC(=O)N1CCc2c(sc3nc(SCC(=O)Nc4ccc(F)cc4)n(Cc4ccco4)c(=O)c23)C1 | 0.42 | 3.6 | 7 | 
6 | Cc1sc2c(c1C)C(c1ccc(Cl)cc1)=N[C@@H](CC(=O)Nc1ccc(O)cc1)c1nnc(C)n1-2 [BIRABRESIB] |  |  |  | Activity (MOLM-14 [4]): Dose-Dependent Effect; Activity (K562 [5]): Active; EC50 (MOLM-14 [6]): 0.08 µM
7 | CC(=O)N1CCc2c(sc3nc(SCC(=O)Nc4ccc(Cl)cc4)n(Cc4ccco4)c(=O)c23)C1 | 0.53 | 4.5 | 8 | 
8 | COc1cc(OC)c2c(=O)[nH]c(-c3cc(C)c(OCCO)c(C)c3)nc2c1 [APABETALONE] |  |  |  | Activity (MOLM-14 [4]): Dose-Dependent Effect; EC50 (NB-4): > 5 µM; EC50 (K562 [7]): > 5 µM; EC50 (CCRF-CEM): > 5 µM; EC50 (MOLM-14 [6]): 6.7 µM
9 | CC(=O)N1CCc2c(sc3nc(SCC(=O)Nc4ccccc4Cl)n(Cc4ccco4)c(=O)c23)C1 | 0.1 | 2.8 | 23 | 
10 | CC(=O)N1CCc2c(sc3nc(SCC(=O)Nc4ccc(C)c(F)c4)n(Cc4ccco4)c(=O)c23)C1 | 0.21 | 4.2 | 31 | 
11 | CC(=O)N1CCc2c(sc3nc(SCC(=O)Nc4ccc(F)cc4F)n(Cc4ccco4)c(=O)c23)C1 | 0.38 | 3.5 | 13 | 
12 | CC(=O)N1CCc2c(sc3nc(SCC(=O)Nc4ccccc4C)n(Cc4ccco4)c(=O)c23)C1 | 0.22 | 3 | 15 | 
13 | CC(=O)N1CCc2c(sc3nc(SCC(=O)Nc4cc(Cl)ccc4C)n(-c4ccccc4)c(=O)c23)C1 | 6.3 | > 25 | > 4 | 
14 | CC(=O)N1CCc2c(sc3nc(SCC(=O)Nc4ccccc4F)n(Cc4ccco4)c(=O)c23)C1 | 0.21 | 7.5 | 20 | 
15 | CC(=O)N1CCc2c(sc3nc(SCC(=O)Nc4cccc(Cl)c4)n(Cc4ccco4)c(=O)c23)C1 | 0.49 | 3.1 | 9 | 
16 | CC(=O)N1CCc2c(sc3nc(SCC(=O)Nc4ccccc4)n(Cc4ccco4)c(=O)c23)C1 | 0.14 | 14 | 100 | 
17 | CC(=O)N1CCc2c(sc3nc(SCC(=O)Nc4ccc(F)c(Cl)c4)n(Cc4ccco4)c(=O)c23)C1 | 0.74 | 3.8 | 7 | 
18 | CC(=O)c1ccc(NC(=O)CSc2nc3sc4c(c3c(=O)n2Cc2ccco2)CCN(C(C)=O)C4)cc1 | 0.32 | 1.5 | 4 | 
19 | CSc1cccc(NC(=O)CSc2nc3sc4c(c3c(=O)n2Cc2ccco2)CCN(C(C)=O)C4)c1 | 0.41 | 6.5 | 11 | 

Row | SMILES | IC50 [1] [µM] | IC50 [2] [µM] | Ratio IC50 (Homo sapiens [3]) | also measured
20 | CCC(=O)N1CCc2c(sc3[nH]c(=O)n(C4CCCCC4)c(=O)c23)C1 |  | > 25 |  | 
21 | CC(=O)Nc1c(F)cc(C(=O)N[C@H]2CC[C@H](O)CC2)cc1O[C@@H](C)c1ccccc1 [GSK046] |  |  |  | IC50 [8]: 3.6 µM; Activity (MOLM-14 [4]): Dose-Dependent Effect; EC50 (NB-4): > 5 µM; EC50 (K562 [7]): > 5 µM; EC50 (CCRF-CEM): > 5 µM; EC50 (MOLM-14 [6]): 14 µM
22 | Cc1nn(CCO)c(C)c1-c1c(C)c(-c2ccc(O)cc2)nc(N)c1C#N |  |  |  | IC50 [9]: 8.2 µM; IC50 [10]: 0.9 µM; Ratio IC50 (Homo sapiens [11]): 9
23 | CCOc1ccc(NC(=O)CSc2nc3sc4c(c3c(=O)n2Cc2ccco2)CCN(C(C)=O)C4)cc1 | 0.88 | 1.3 | 4 | 
24 | CC(=O)c1cccc(NC(=O)CSc2nc3sc4c(c3c(=O)n2Cc2ccco2)CCN(C(C)=O)C4)c1 | 0.17 | 4.1 | 9 | 
25 | Cc1cc(F)ccc1NS(=O)(=O)c1cc(-c2c(C)noc2C)ccc1C |  |  |  | IC50 [10]: 1.5 µM; Ratio IC50 (Homo sapiens [11]): 4.9
26 | Cc1ccc(-c2c(C)noc2C)cc1S(=O)(=O)Nc1cccc(C)c1C |  |  |  | IC50 [10]: 0.9 µM; Ratio IC50 (Homo sapiens [11]): 12
27 | O=C1c2ccc(Oc3cccc(Oc4ccc5c(c4)C(=O)N(c4ccc(O)cc4)C5=O)c3)cc2C(=O)N1c1ccc(O)cc1 |  |  |  | IC50 [10]: 3.2 µM; Ratio IC50 (Homo sapiens [11]): 0.4
28 | CC(=O)N1CCc2c(sc3nc(SCC(=O)Nc4ccccc4)n(-c4ccccc4)c(=O)c23)C1 | 5.5 | > 25 | > 5 | 
29 | COc1ccccc1NC(=O)CSc1nc2sc3c(c2c(=O)n1Cc1ccco1)CCN(C(C)=O)C3 | 0.072 |  | 31 | 
30 | CCOc1ccccc1NC(=O)CSc1nc2sc3c(c2c(=O)n1Cc1ccco1)CCN(C(C)=O)C3 | 0.15 | 4.4 | 23 | 
31 | CC(=O)N1CCc2c(sc3nc(SCC(=O)Nc4cc(Cl)ccc4C)n(Cc4ccco4)c(=O)c23)C1 | 0.085 | 8.5 |  | IC50 [10]: 0.9 µM; Ratio IC50 (Homo sapiens [11]): 4.4; IC50 [12]: 0.12 µM; IC50 [13]: 2.6 µM; IC50 [14]: 0.325 µM; IC50 [15]: 0.775 µM
32 | CC(=O)N1CCc2c(sc3nc(SCC(=O)Nc4cccc(C)c4)n(Cc4ccco4)c(=O)c23)C1 | 0.44 |  | 12 | 
33 | COc1cc(C(=O)C(=Cc2ccncc2)c2nc3ccccc3o2)cc(OC)c1OC |  |  |  | IC50 [10]: 0.8 µM; Ratio IC50 (Homo sapiens [11]): 5.4
34 | CC(=O)N1CCc2c(sc3nc(SCC(=O)Nc4ccc(C)cc4)n(Cc4ccco4)c(=O)c23)C1 | 0.63 | 3.2 | 5 | 
35 | CC(=O)N1c2ccc(C3=CCNCC3)cc2N(Cc2ccccc2CO)C[C@@H]1C1CC1 |  |  |  | Kd [16]: 3 µM; Kd [17]: 0.063 µM
36 | COc1cccc(NC(=O)CSc2nc3sc4c(c3c(=O)n2Cc2ccco2)CCN(C(C)=O)C4)c1 | 0.3 | 14 | 9 | 
37 | CCc1cccc(C)c1NS(=O)(=O)c1cc(-c2c(C)noc2C)ccc1C |  |  |  | IC50 [10]: 1.1 µM; Ratio IC50 (Homo sapiens [11]): 7.8
